Experimental data from patent US20180009764A1, “METHOD FOR TREATING MACROPHAGE MIGRATION INHIBITORY FACTOR (MIF)-IMPLICATED DISEASES AND CONDITIONS WITH IODO PYRIMIDINE DERIVATIVES” (UNIVERSITY OF LOUISVILLE RESEARCH FOUNDATION, INC., priority 2009, published 2018).

Columns and labels:
[1] = Pharmacokinetics parameters in rats; type: in vivo; settings: rat, plasma
Procedure: The pharmacokinetic parameters of several compounds were investigated in rodents. Both oral and iv administration were investigated in rats. Blood samples were collected over time; plasma was analyzed using an LC/MS-MS method. Pharmacokinetic parameters were calculated using Win-NonLin. Terminal plasma half-lives were 7.10 hr for ACT-MIF-001, 1.66 hr for ACT-MIF-002, and 1.50 hr for ACT-MIF-003. […] The volume of distribution values were 72666 mL/kg for ACT-MIF-001, 2118 mL/kg for ACT-MIF-002, and 1926 mL/kg for ACT-MIF-003.

[2] = Microsomal stability in human liver microsomes; type: in vitro ADME; settings: both, human, microsomes, pH 7.4
Procedure: Stability in human liver microsomes was tested over […] at 37° C. using pooled mixed gender human liver microsomes. Liver microsomes were prepared at 1.0 mg/ml of microsomal protein in a 100 mM potassium phosphate pH 7.4 buffer with 1 mM NADPH. The media was incubated at 37° C. with the compound in solution in DMSO. The concentration of the compound was followed by LC/MS-MS as a function of time. Samples were assayed at t=0, 30, 60 and 120 minutes. Testosterone was used as a positive control. The same experiment was performed with mouse liver microsomes instead of human liver microsomes.

[3] = system: Chick Chorioallantoic Membrane (CAM); assay: Chick chorioallantoic membrane (CAM) assay, o ring; type: in vivo; settings: for Blood Vessel Density: o ring
Procedure: (§1) 8 groups with 10 embryos in each group were used in the experiment described below. Fresh fertile eggs were incubated for 3 days in a standard egg incubator at 37° C. for 3 days. On Day 3, eggs were cracked under sterile conditions and embryos were placed into 20×100 mm plastic plates and cultivated at 37° C. in an embryo incubator with a water reservoir on the bottom shelf. Air was continuously bubbled into the water reservoir using a small pump so that the humidity in the incubator is kept constant. On Day 6, a sterile silicon “o” ring was placed on each CAM and test compound dissolved in 0.5% methylcellulose was placed into each “o” ring in a sterile hood. Paclitaxel was used as a positive control. Embryos were returned to the incubator after addition of test material. Control embryos received 10 μL of vehicle alone. On Day 8, embryos were removed from the incubator and kept at room temperature while blood vessel density were determined under each “o” ring using an image capturing system at a magnification of 160×. The blood vessel density was measured using an angiogenesis scoring system in that arithmetic numbers 0 to 5 (or exponential numbers 1 to 32) are used to indicate number of blood vessels present at the treatment sites on the CAM. Number 5 represents the highest density and 0 represents no angiogenesis. The percent of inhibition at each dosing site was calculated using the score recorded for that site divided by the mean score obtained from the appropriate control samples for each individual experiment. The percent of inhibition for each dose of a given compound was calculated by pooling all results obtained for that dose from 8-10 embryos.

in vitro = in vitro ADME; settings: human, plasma, Human Plasma Protein Binding % Bound
From the text: Plasma protein binding was ascertained using dialysis equilibrium methods known in the art.

Caco-2 monolayers = assay: Caco-2 cell permeability and transport; type: in vitro ADME; design: Caco-2 Permeability Papp B-A / Caco-2 Permeability Papp A-B: unit not given here; settings: for Caco-2 Permeability Papp B-A: basolateral-to-apical
Procedure: (§2) Cell permeability and transport mechanisms in Caco-2 and MDR1-MDCK monolayers experiments were performed in triplicate in the apical-to-basolateral and basolateral-to-apical direction using […]® wells containing either Caco-2 or MDR1-MDCK monolayers. A modified Hanks buffer pH 7.4 was used in both reservoir and receiver wells with the addition of 1% BSA in the receiver side. Confluent monolayers were used and their integrity was verified using reference compounds (Atenolol as a low permeability reference compound and Propanolol as a high permeability reference compound). A sample in the basolateral and apical sides was taken after 2 hours and the concentration measured by LC/MS-MS.

Du 145 = assay: Inhibition of tumor cells proliferation (CellTiter Glo); type: cell-based; settings: Homo sapiens, 72 hours
Procedure: Inhibition of the proliferation of tumor cells was investigated in vitro in several tumor cell lines. Cells of the desired tumor cell line were plated at 2×10^5 cells/ml in 96 well plates. Twice the indicated concentrations of the compounds of the invention were added to cells the following day in an equal volume of media. 72 hours later, cells were lysed and subjected to ATP determination using the CellTiter Glo-Luminescent Cell Viability Assay kit (Promega, Madison, Wis.). Experiments were done in triplicate. Results for the inhibition of cells proliferation are reported as IC50 (the concentration leading to a 50% inhibition of proliferation of the cell population) and are listed in Table 6. FIGS. 3 and 4 show bar graphs comparing the IC50s of specific embodiments of compounds of the invention across multiple tumor cell lines.

MIF = target: T1, MIF (Homo sapiens, UniProt P14174); assay: MIF cell lysate enzymatic inhibition; type: biochemical; settings: cell lysates
T1 construct: the enzymatic activity of MIF present in cell lysates; endogenous in cells
T1 sequence (P14174 2-115 limits assumed): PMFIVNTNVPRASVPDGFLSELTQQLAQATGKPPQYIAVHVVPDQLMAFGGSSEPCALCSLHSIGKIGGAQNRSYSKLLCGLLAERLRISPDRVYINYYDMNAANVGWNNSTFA
Procedure: Normal or transformed cell lysates can be used to determine the concentration inhibiting the enzymatic activity of MIF present in cell lysates. Cells are cultured in the appropriate media to the required number of cells, collected, and lysed. Compounds to be characterized are solubilized in DMSO and serial dilutions are performed in order to obtain a range of concentrations including complete and no quantifiable inhibition.

MDR1-MDCK monolayers = assay: MDR1-MDCK cell permeability and transport; type: in vitro ADME
Procedure: as §2

[4] = system: Chick Chorioallantoic Membrane (CAM); assay: CAM assay with matrigel plugs; type: in vivo
Procedure: as §1
Another experiment was performed using a protocol similar to the one described above but using matrigel plugs instead of o ring to deliver the test material to the CAM. Results are summarized in Table 9 below and show a statistically significant inhibition of angiogenesis at the high concentrations of test material.

[5] = Caco-2 cell permeability and transport; type: in vitro ADME; design: Caco-2 Permeability Papp B-A / Caco-2 Permeability Papp A-B: unit not given here; settings: human, Caco-2, pH 7.4
Procedure: as §2

LOX-IMV1 tumor cell line = assay: Inhibition of cell migration (Oris Cell Migration Assay); type: cell-based; settings: 72 hrs, even at low concentrations (0.03 μM), FIG. 7
Procedure: The LOX-IMV1 tumor cell line was used to determine the inhibition of cell migration using the Oris Cell Migration Assay kit (Promega, Mich.). Briefly, adherent cells were seeded into each well of the kit according to kit instructions. Concentrations of cells in the migration zone were determined to calculate IC50 values. Prior to the migration assay, cell proliferation IC50s were determined to differentiate between inhibition of proliferation and migration. […] A slightly modified method was also used to determine the inhibition of invasion.

p53 = p53 up regulation, p53 luciferase assay; type: cell-based; settings: 10 μM; FIG. 5
Procedure: The up regulation of p53 was determined using a commercially available p53 luciferase assay kit. 1×10^5 cells/ml were plated in a 24 well plate and allowed to adhere overnight. MIF antagonists were added to the cells at the indicated concentrations for 16 hours and transiently co-transfected with 0.125 μg/well of p53-responsive luciferase promoter plasmid (Promega, Madison, Wis.) together with 0.0125 μg/well Renilla pRL-null plasmid (Promega) using Lipofectamine (Invitrogen) transfection reagent. After 24 hrs, Firefly and Renilla luciferase activities were measured by the Dual Luciferase Reporter Assay System (Promega, Madison, Wis.) on a TD-20/20 luminometer (Turner Designs).

Row | Metabolic Stability in Human Microsomes % Remaining ([2]; 0 h) | Metabolic Stability in Human Microsomes % Remaining ([2]; 1 h) | Caco-2 Permeability Class (Caco-2 monolayers) | IC50 (Du 145) | IC50 (MIF) | efflux ratio at 2 h [5] | Structure (SMILES) | other results
1 | 100% | <2% | Low | < 10000 nM | 37 nM | – | COc1ccc(-c2cc(I)ncn2)c(F)c1F [ACT-MIF-001, 4-Iodo-6-(2,3-difluoro-4-methoxyphenyl)pyrimidine] | Vd ([1]; intravenous, read-out: Volume of distribution): 72.7 L/kg; clearance ([1]; iv, after i.v. administration): 763 mL/min/kg; half-life ([1]; read-out: Terminal plasma half-life (converted)): 7.1 h; Blood Vessel Density ([3]; 0.3 nM per CAM): 10.5 ± 3.4; Blood Vessel Density ([3]; 3 nM per CAM): 4.1 ± 0.8; Blood Vessel Density ([3]; 30 nM per CAM): 1.8 ± 0.3; Anti-angiogenic properties ([3]; CAM assay, in words): high anti-angiogenic properties; fraction unbound (in vitro): 0.017; Caco-2 Permeability Papp A-B (Caco-2 monolayers; apical-to-basolateral, pH 7.4, 2 hours): <0.1; Caco-2 Permeability Papp B-A (Caco-2 monolayers; pH 7.4, 2 hours): <0.1; Brain penetration classification (MDR1-MDCK monolayers): Low; P-gp Substrate (MDR1-MDCK monolayers): No; Efflux (MDR1-MDCK monolayers; class in words): Low
2 | 100% | 82% | High | 36700 nM | 250 nM | 1.4 | Ic1cc(-c2cccnc2)ncn1 [ACT-MIF-006, 4-Iodo-6-(pyridin-3-yl)pyrimidine] | Blood Vessel Counts ([4]; 0.3 nM per CAM): 38.8 ± 3.5; Blood Vessel Counts ([4]; 3 nM per CAM): 35.8 ± 5.4; Blood Vessel Counts ([4]; 30 nM per CAM): 33.5 ± 1.7; Inhibition of cell migration (LOX-IMV1 tumor cell line): significant inhibition of migration
3 | – | – | High | – | – | 0.6 | Fc1ncccc1-c1cc(I)ncn1 [ACT-MIF-011, 4-Iodo-6-(2-fluoropyridin-3-yl)pyrimidine] | –
4 | 100% | 0% | – | < 10000 nM | 190 nM | – | Fc1ccc(-c2cc(I)ncn2)c(F)c1 [ACT-MIF-017, 4-Iodo-6-(2,4-difluorophenyl)pyrimidine] | –
5 | 100% | 73% | – | – | 570 nM | – | CC(=O)Nc1cccc(-c2cc(I)ncn2)c1 [ACT-MIF-021, 4-Iodo-6-(3-acetylaminophenyl)pyrimidine] | –
6 | – | – | – | < 40000 nM | – | – | Ic1cc(-c2ccsc2)ncn1 [ACT-MIF-022, 4-Iodo-6-(thiophen-3-yl)pyrimidine] | –
7 | – | – | Low | – | – | 1.5 | Ic1cc(-c2cncc3ccccc23)ncn1 [ACT-MIF-025, 4-Iodo-6-(isoquinolin-4-yl)pyrimidine] | –
8 | – | – | – | – | – | – | Ic1cc(-c2cccs2)ncn1 [ACT-MIF-030, 4-Iodo-6-(thiophen-2-yl)pyrimidine] | Blood Vessel Counts ([4]; 0.3 nM per CAM): 35.6 ± 1.0; Blood Vessel Counts ([4]; 3 nM per CAM): 32.7 ± 3.2; Blood Vessel Counts ([4]; 30 nM per CAM): 28.1 ± 2.0; p53 regulation (p53): implicated in p53 regulation
9 | 100% | 82% | High | < 5000 nM | 115 nM | 1.1 | CCOc1ccc(-c2cc(I)ncn2)cc1F [ACT-MIF-033] | Caco-2 Permeability Papp B-A (Caco-2 monolayers; pH 7.4, 2 hours): 3.0; p53 regulation (p53): implicated in p53 regulation
10 | – | – | – | < 100000 nM | 270 nM | – | NC(=O)c1ccc(-c2cc(I)ncn2)cc1 [ACT-MIF-034, 4-Iodo-6-(4-aminocarbonylphenyl)pyrimidine] | p53 regulation (p53): implicated in p53 regulation
11 | – | – | – | – | 230 nM | – | Ic1cc(-c2ccnc3ccccc23)ncn1 [ACT-MIF-036, 4-Iodo-6-(quinolin-4-yl)pyrimidine] | –
12 | – | – | – | – | – | – | CC(=O)O[C@H]1C(=O)[C@@]2(C)[C@H]([C@H](OC(=O)c3ccccc3)[C@]3(O)C[C@H](OC(=O)[C@H](O)[C@@H](NC(=O)c4ccccc4)c4ccccc4)C(C)=C1C3(C)C)[C@]1(OC(C)=O)CO[C@@H]1C[C@@H]2O [Paclitaxel, reference compound] | Blood Vessel Counts ([4]; 2 nM per CAM): 15.5 ± 2.1; Blood Vessel Density ([3]; 6 nM per CAM): 2.8 ± 0.7
13 | – | – | – | – | – | – | CC(=O)CC(c1ccccc1)c1c(O)c2ccccc2oc1=O (centres unmarked) [Warfarin, reference compound] | fraction unbound (in vitro): 0.01
